Experimental findings from patent US20230340012A1, “NATURAL AND SYNTHETIC COMPOUNDS FOR TREATING CANCER AND OTHER DISEASES” (PACIFIC ARROW LIMITED, priority 2009, published 2023) are described below.

One data set concerns cancer cells. The data set can be described thus: MTT cytotoxic assay of esterification products (Cytotoxicity activity). Conditions: E4A esterified with Acetyl chloride (Acy = Acetyl), compounds isolated with HPLC. In kind it is cell-based, human. In a few lines: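 Cytotoxicity was read by MTT (Carmichael method, modified), with cells seeded 24 h ahead of treatment. Sixteen human cancer lines spanning bone, lung, bladder, ovary, colon, pancreas, prostate, skin, mouth, kidney, breast, liver, brain, leukemia and cervix were used. Test samples were acyl chloride esterification products of triterpenes, as mixtures or HPLC-purified compounds.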
Background: Tetrazolium assays rely on reduction of a dye to a coloured formazan, in cell work by metabolically active cells.
Regarding `CC(=O)OCC12C(O)CC3(C)C(=CCC4C5(C)CCC(O)C(C)(CO)C5CCC43C)C1CC(C)(C)C(O)C2O` (stereo not shown) [Compound H2], the Cytotoxicity activity result is on record as “moderate”.
For `CC(=O)OCC1(C)C(O)CCC2(C)C1CCC1(C)C2CC=C2C3CC(C)(C)C(OC(C)=O)C(OC(C)=O)C3(COC(C)=O)C(O)CC21C` (stereo not shown) [Compound H8], the Cytotoxicity activity entry is recorded as “weak”.
Take `CC(=O)OC1C(OC(C)=O)C2(CO)C(OC(C)=O)CC3(C)C(=CCC4C5(C)CCC(O)C(C)(CO)C5CCC43C)C2CC1(C)C` (stereo not shown) [Compound H22]: the Cytotoxicity activity entry is on record as “moderate”.
Same read-out and setting: the entry for `CC(=O)OCC1(C)C(O)CCC2(C)C1CCC1(C)C2CC=C2C3CC(C)(C)C(O)C(O)C3(COC(C)=O)C(O)CC21C` (stereo not shown) [Compound H3] is “strong”.

The same data set, now with this note: E4A esterified with Crotonoyl chloride (Cro = Crotonoyl), compounds isolated with HPLC.
Consider `CC=CC(=O)OCC12C(O)CC3(C)C(=CCC4C5(C)CCC(OC(=O)C=CC)C(C)(CO)C5CCC43C)C1CC(C)(C)C(O)C2O` (stereo not shown) [Compound I27], for which the Cytotoxicity activity result is “moderate”.

Still in this data set, the particulars now being: MTT cytotoxic assay, isolated esterification products of E4A.
Turning to `CC=C(C)C(=O)OC1C(OC(=O)C(C)=CC)C2(CO)C(O)CC3(C)C(=CCC4C5(C)CCC(O)C(C)(CO)C5CCC43C)C2CC1(C)C` (stereo not shown) [Compound A24], the Cytotoxicity activity entry is recorded as “moderate”.
Take `CCC(CC)C(=O)OCC1(C)C(O)CCC2(C)C1CCC1(C)C2CC=C2C3CC(C)(C)C(O)C(OC(=O)C(CC)CC)C3(COC(=O)C(CC)CC)C(O)CC21C` (stereo not shown) [Compound E5]: the Cytotoxicity activity entry is listed as “moderate”.
Take `C=CCCC(=O)OCC1(C)C(O)CCC2(C)C1CCC1(C)C2CC=C2C3CC(C)(C)C(OC(=O)CCC=C)C(OC(=O)CCC=C)C3(COC(=O)CCC=C)C(OC(=O)CCC=C)CC21C` (stereo not shown) [Compound C16]: the Cytotoxicity activity entry is “weak”.
As for `CC(C)=CC(=O)OCC1(C)C(OC(=O)C=C(C)C)CCC2(C)C1CCC1(C)C2CC=C2C3CC(C)(C)C(OC(=O)C=C(C)C)C(O)C3(COC(=O)C=C(C)C)C(O)CC21C` (stereo not shown) [Compound B11], the Cytotoxicity activity entry was “weak”.
As to `CC=C(C)C(=O)OC1C(OC(=O)C(C)=CC)C2(CO)C(O)CC3(C)C(=CCC4C5(C)CCC(OC(=O)C(C)=CC)C(C)(CO)C5CCC43C)C2CC1(C)C` (stereo not shown) [Compound A23], the Cytotoxicity activity entry is “moderate”.
Still for that read-out and setting: to `CC=C(C)C(=O)OCC1(C)C(OC(=O)C(C)=CC)CCC2(C)C1CCC1(C)C2CC=C2C3CC(C)(C)C(O)C(O)C3(COC(=O)C(C)=CC)C(OC(=O)C(C)=CC)CC21C` (stereo not shown) [Compound A10] belongs “weak”; to `CC(C)=CC(=O)OCC1(C)C(O)CCC2(C)C1CCC1(C)C2CC=C2C3CC(C)(C)C(O)C(O)C3(COC(=O)C=C(C)C)C(O)CC21C` (stereo not shown) [Compound B3], “strong”; to `CCCCCC(=O)OCC1(C)C(O)CCC2(C)C1CCC1(C)C2CC=C2C3CC(C)(C)C(OC(=O)CCCCC)C(O)C3(CO)C(O)CC21C` (stereo not shown) [Compound D29], “moderate”.

The same data set, now with this note: esterification products isolated with HPLC; graded strong / moderate / weak.
As for `CC=CC(=O)OC1C(O)C2(CO)C(O)CC3(C)C(=CCC4C5(C)CCC(O)C(C)(COC(=O)C(C)=CC)C5CCC43C)C2CC1(C)C` (stereo not shown) [Tig—Cro—5], the Cytotoxicity activity result is given as “moderate”.
Turning to `CC=C(C)C(=O)OCC1(C)C(O)CCC2(C)C1CCC1(C)C2CC=C2C3CC(C)(C)C(O)C(OC(C)=O)C3(COC(=O)C(C)=CC)C(O)CC21C` (stereo not shown) [Tig—R—Acy—3], the Cytotoxicity activity entry is given as “moderate”.
Regarding `CC=C(C)C(=O)OCC1(C)C(O)CCC2(C)C1CCC1(C)C2CC=C2C3CC(C)(C)C(O)C(OC(=O)C(CC)CC)C3(COC(=O)C(C)=CC)C(O)CC21C` (stereo not shown) [Tig—R—Eth—3], the Cytotoxicity activity result is “moderate”.
For the compound `CC=C(C)C(=O)OCC1(C)C(OC(C)=O)CCC2(C)C1CCC1(C)C2CC=C2C3CC(C)(C)C(O)C(O)C3(COC(=O)C(C)=CC)C(O)CC21C` (stereo not shown) [Tig—R—Acy—4], the Cytotoxicity activity result is “moderate”.
Regarding `CC=C(C)C(=O)OCC1(C)C(O)CCC2(C)C1CCC1(C)C2CC=C2C3CC(C)(C)C(O)C(OC(C)=O)C3(COC(C)=O)C(O)CC21C` (stereo not shown) [Tig—Acy—3], the Cytotoxicity activity result was “moderate”.
Turning to `CC=C(C)C(=O)OCC1(C)C(O)CCC2(C)C1CCC1(C)C2CC=C2C3CC(C)(C)C(O)C(O)C3(COC(=O)C=Cc3ccccc3)C(O)CC21C` (stereo not shown) [Tig—Cin—1], the Cytotoxicity activity entry is “strong”.
